For the assay, the system named is Cn Mdh2 CT4–1. The following applies: read-out: Km,MeOH; 1 mM NAD+, 100 mM glycine-NaOH pH 9.5, 50 mM MgSO4, 37 °C, no activator protein.

A word on the Km: it is the substrate concentration at which the rate is half of its maximum. In the case of `CO` [methanol], the Km worked out at 88.8 ± 7.8 mM.

The record behind these values is article PMC6479731 (ACS Synthetic Biology, 2019).
